The source of these data is patent US20050250110A1, “PNA conjugate for treating chronic myeloid leukemia (CML)” (priority 2001, published 2005).

Experiment [1] deals with tumor cell line K562. The experiment in a line: Apoptosis behavior of K562 cells: cell number after 24 h treatment and subsequent PNA removal. Type of experiment: cell-based. The settings on record: 100 nM for 24 h. How it is done: The cell number change is shown on a time axis. The treatment was carried out for 24 h and by means of subsequent PNA removal. Final concentration: 100 nM. Dark blue line: AS conjugate; magenta: random sequence conjugate; yellow: AS-non-ligated; blue: untreated control.
The question of the apoptosis behavior following the administration of a conjugate according to the invention (corresponding to Example 3 and FIG. 6) was studied as such. The incubation period was 24 hours with 5% CO2 at 37° C. in an incubator. Having removed the medium mixture and carrying out a wash step twice using fresh RPMI-1640, the same volume of fresh medium was added by pipetting and further cultured. The medium was changed every 72 hours. The cultures were treated as before: As in the previous experiment, a break-down of the untreated culture was again found after about 72 hours. […] The relative stability up to 144 hours following the removal of antisense NLS-PNA was striking in the culture treated with antisense NLS-PNA.

Experiment [2] deals with tumor cell line K562 (Ph-positive). The experiment in a line: Growth behavior of K562 cells following administration of PNA conjugates (cell number, Coulter Counter). Type of experiment: cell-based.

As for “Transport peptide (penetratin)-disulfide bridge-NLS—KK(FITC)—PNA^BCR/Abl (sequence of PNA^BCR/Abl: H2N-TGCGTGTGGATGATTCTTTGTTTTAA-COOH) [antisense NLS penetratin]”, in experiment [1] (then PNA removal), the “relative stability of the culture, time following PNA removal” value is given as “up to 144 hours” and the “time of the maximum cell number following PNA removal” value is 120 h. Moreover, the “cell growth / cell number after PNA removal” value in experiment [1] (then PNA removal and further culture, medium changed every 72 hours) was “minor increase in the cell number”. Besides, in experiment [2] (100 nM, in contrast to the controls), the “phenotype of the treated cells” value is given as “vital phenotype”. The “stabilization of the cell number, time after the treatment” value in experiment [2] (final concentration 100 nM, treatment throughout the experiment) stood at 24 h. Further, the “growth behavior (cell number change on a time axis)” value in experiment [2] (final concentration 100 nM, treatment throughout the experiment, compared with untreated control) was “stagnation of the cell proliferation”.
